Measured values: patent US9023789B2, “Amylin analogs and pharmaceutical compositions thereof” (Novo Nordisk A/S, priority 2012, dated 2015)
Numbered stars: 1 amine (or outer) side, 2 acyl side, 3 side chain; on linkers, the order of the positions; unused ones are H or OH. Bridge positions count the residues as written; N and C are the ends. Side chains are listed from the residue outwards. Peptide text beside a SMILES is read from it. * marks the point of attachment. C20 diacid = O=C(O)CCCCCCCCCCCCCCCCCCC(=O)*; γGlu = O=C(O)[C@H](CCC(=O)[*:2])N[*:1]

Columns and labels:
[1] = molecular target: T1, human amylin 3(a) receptor (human calcitonin receptor + RAMP-3) in BHK570 cells (Homo sapiens, UniProt O60896+P30988); assay: ASSAY (II)a functional assay, human amylin receptor (CRE luciferase); format: cell-based
T1 construct: expressed in transfected cells
Procedure, shortened: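 Ligand exposure 3 h at 37 °C, 5% CO2 in DMEM with 10% FBS, 10 mM Hepes pH 7.4. cAMP-driven luciferase read by luminescence after 30 min LucLite at room temperature.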

[2] = molecular target: T2, human amylin receptor (membranes from Amylin 3(a)/CRE-luc cells) (Homo sapiens, UniProt O60896+P30988); assay: ASSAY (V) binding to the human amylin receptor (SPA, 125I-rat amylin);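 further: competition binding of cell membranes (35 ng/µL) mixed with SPA beads in 384-well plates at 40 µL total volume, read by scintillation counting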
T2 construct: expressed in transfected cells
T2 sequence (P30988 25-474): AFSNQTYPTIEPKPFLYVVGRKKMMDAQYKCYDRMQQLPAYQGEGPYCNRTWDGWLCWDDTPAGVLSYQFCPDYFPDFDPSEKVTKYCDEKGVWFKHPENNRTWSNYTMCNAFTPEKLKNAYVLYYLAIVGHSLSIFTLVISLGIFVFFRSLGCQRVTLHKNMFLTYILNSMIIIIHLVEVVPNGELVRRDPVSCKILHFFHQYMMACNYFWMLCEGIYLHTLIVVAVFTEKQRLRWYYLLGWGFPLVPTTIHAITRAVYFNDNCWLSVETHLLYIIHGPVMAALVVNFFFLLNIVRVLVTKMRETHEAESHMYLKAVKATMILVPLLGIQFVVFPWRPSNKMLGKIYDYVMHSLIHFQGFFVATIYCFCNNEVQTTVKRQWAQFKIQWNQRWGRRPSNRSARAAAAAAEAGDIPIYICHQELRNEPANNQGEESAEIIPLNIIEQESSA
T2 sequence (O60896 24-148 partner): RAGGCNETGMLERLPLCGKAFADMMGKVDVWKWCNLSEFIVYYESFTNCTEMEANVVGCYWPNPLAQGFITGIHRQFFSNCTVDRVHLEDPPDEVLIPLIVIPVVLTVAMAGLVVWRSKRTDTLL

[3] = molecular target: T3, rat amylin receptor (rat calcitonin receptor + rat RAMP 3) (Rattus norvegicus, UniProt P32214+Q9JJ73); assay: ASSAY (VI) binding to the rat amylin receptor; settings: for IC50: binding to rat amylin receptor, read-out: rAmylin-R bind IC50
T3 construct: expressed in transfected cells; host or cells: BHK tk'ts 13 (transient, FuGENE 6), membranes
T3 sequence (P32214 25-479 isoform P32214-2 limits assumed): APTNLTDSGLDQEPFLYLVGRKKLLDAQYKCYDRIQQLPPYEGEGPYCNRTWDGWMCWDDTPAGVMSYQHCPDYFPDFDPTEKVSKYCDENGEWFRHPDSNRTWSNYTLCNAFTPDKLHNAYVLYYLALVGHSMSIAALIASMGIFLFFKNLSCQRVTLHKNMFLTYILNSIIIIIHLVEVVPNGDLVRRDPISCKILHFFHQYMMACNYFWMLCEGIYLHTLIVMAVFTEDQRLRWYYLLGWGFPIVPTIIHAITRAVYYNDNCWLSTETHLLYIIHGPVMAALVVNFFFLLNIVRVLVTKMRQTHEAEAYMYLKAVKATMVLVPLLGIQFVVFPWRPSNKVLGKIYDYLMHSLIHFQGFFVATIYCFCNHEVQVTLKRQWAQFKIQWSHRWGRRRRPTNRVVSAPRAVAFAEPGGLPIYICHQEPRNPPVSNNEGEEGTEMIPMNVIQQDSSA
T3 sequence (Q9JJ73 23-147 partner): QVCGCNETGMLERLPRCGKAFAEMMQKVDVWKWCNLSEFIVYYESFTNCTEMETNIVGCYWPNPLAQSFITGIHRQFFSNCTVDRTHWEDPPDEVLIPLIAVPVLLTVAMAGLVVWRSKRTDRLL
Procedure, shortened: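 This assay measured binding to the rat amylin receptor. BHK tk′ts 13 cells were transiently transfected with the rat calcitonin receptor using FuGENE® 6 (Roche), following the manufacturer's recommendations. About 48 hours after transfection, the cells were harvested and membranes were prepared from them for the binding determination.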

rat calcitonin receptor = molecular target: T4, rat calcitonin receptor (Rattus norvegicus, UniProt P32214); assay: ASSAY (VIII) binding to the rat calcitonin receptor; settings: Table 7, read-out: rCTR bind IC50
T4 construct: expressed in transfected cells; host or cells: BHK tk'ts 13 (transient, FuGENE 6), membranes
T4 sequence (P32214 25-479 isoform P32214-2 limits assumed): T3 sequence (P32214 25-479 isoform P32214-2 limits assumed)
Procedure, shortened: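 Membranes were prepared from BHK tk′ts 13 cells transiently transfected with rat calcitonin receptor. Cells were grown in DMEM with 10% FBS and harvested approximately 48 hours after transfection.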

[4] = hCTR funct. EC50 divided by hAmylin-R funct. EC50
[5] = hCTR funct. EC50 over hAmylin-R funct. EC50
[6] = human functional selectivity: hCTR funct. EC50 / hAmylin-R funct. EC50
[7] = Table 5, selectivity, hCTR bind IC50 / hAmylin-R bind IC50
[8] = Table 5a, selectivity, hCTR bind IC50 / hAmylin-R bind IC50
[9] = Table 5b, selectivity, hCTR bind IC50 / hAmylin-R bind IC50
[10] = Table 5c, selectivity, hCTR bind IC50 / hAmylin-R bind IC50
[11] = Table 7, human binding selectivity, included for comparison
[12] = Table 7a (preferred compounds), human binding selectivity, included for comparison
[13] = ratio of human calcitonin receptor binding IC50 to human amylin receptor binding IC50
[14] = Table 7, rat binding selectivity, rCTR IC50 / rAmylin-R IC50
[15] = Table 7a (preferred compounds), rat binding selectivity, rCTR IC50 / rAmylin-R IC50
[16] = ratio of rCTR bind IC50 to rAmylin-R bind IC50

| Compound | Ratio hCT/hAmylin funct. [1, 4] | Ratio hCT/hAmylin funct. [1, 5] | Ratio hCT/hAmylin funct. [1, 6] | Ratio hCT/hAmylin binding [2, 7] | Ratio hCT/hAmylin binding [2, 8] | Ratio hCT/hAmylin binding [2, 9] | Ratio hCT/hAmylin binding [2, 10] | Ratio hCT/hAmylin binding [2, 11] | Ratio hCT/hAmylin binding [2, 12] | Ratio hCT/hAmylin binding [2, 13] | IC50 ([3]; Table 7) [nM] | Ratio rCT/rAmylin binding [3, 14] | Ratio rCT/rAmylin binding [3, 15] | Ratio rCT/rAmylin binding [3, 16] | IC50 (rat calcitonin receptor) [nM] |
| --- | --- | --- | --- | --- | --- | --- | --- | --- | --- | --- | --- | --- | --- | --- | --- |
| CC[C@H](C)[C@H](NC(=O)[C@H](C)NC(=O)CNC(=O)[C@H](Cc1ccccc1)NC(=O)[C@H](CC(N)=O)NC(=O)[C@@H]1CCCN1C(=O)[C@H](CO)NC(=O)[C@H](CO)NC(=O)[C@H](Cc1c[nH]cn1)NC(=O)[C@H](CCCNC(=N)N)NC(=O)[C@H](CC(C)C)NC(=O)[C@H](Cc1ccccc1)NC(=O)[C@H](CCC(=O)O)NC(=O)[C@H](C)NC(=O)[C@H](CC(C)C)NC(=O)[C@H](CCCNC(=N)N)NC(=O)[C@H](CCC(N)=O)NC(=O)[C@@H](NC(=O)[C@H](C)NC(=O)[C@@H]1CSSC[C@H](NC(=O)[C@@H](N)CCCCNC(=O)CC[C@H](NC(=O)CCCCCCCCCCCCCCCCCCC(=O)O)C(=O)O)C(=O)N[C@@H](CC(N)=O)C(=O)N[C@@H]([C@@H](C)O)C(=O)N[C@@H](C)C(=O)N[C@@H]([C@@H](C)O)C(=O)N1)[C@@H](C)O)C(=O)N1CCC[C@H]1C(=O)N[C@@H](CO)C(=O)N[C@@H](CO)C(=O)N[C@H](C(=O)N[C@@H](CC(N)=O)C(=O)N[C@H](C(=O)NCC(=O)N1CCC[C@H]1C(=O)N[C@@H](CCCNC(=N)N)C(=O)N[C@H](C(=O)N[C@@H](Cc1ccc(O)cc1)C(N)=O)[C@@H](C)O)C(C)C)[C@@H](C)O [Example 117] (H-K([γGlu-C20 diacid])CNTATCATQRLAEFLRHSSPNFGAIPSSTNVGPRTY-NH2; disulfide 2-7; N-terminus assumed) | 17.0 | 17.0 | 17.0 | 38.6 | 38.6 | 38.6 | 38.6 | 38.6 | 38.6 | 38.6 | 0.339 | 45.5 | 45.5 | 45.5 | 15.4 |
| CC[C@H](C)[C@H](NC(=O)[C@H](C)NC(=O)CNC(=O)[C@H](Cc1ccccc1)NC(=O)[C@H](CC(N)=O)NC(=O)[C@@H]1CCCN1C(=O)[C@H](CO)NC(=O)[C@H](CO)NC(=O)[C@H](Cc1c[nH]cn1)NC(=O)[C@H](CCCNC(=N)N)NC(=O)[C@H](CC(C)C)NC(=O)[C@H](Cc1ccccc1)NC(=O)[C@H](CCC(=O)O)NC(=O)[C@H](C)NC(=O)[C@H](CC(C)C)NC(=O)[C@H](CCCNC(=N)N)NC(=O)[C@H](CCC(N)=O)NC(=O)[C@@H](NC(=O)[C@H](C)NC(=O)[C@@H]1CSSC[C@H](NC(=O)[C@@H](N)CCCCNC(=O)CC[C@H](NC(=O)CCCCCCCCCCCCCCCCCCC(=O)O)C(=O)O)C(=O)N[C@@H](CC(N)=O)C(=O)N[C@@H]([C@@H](C)O)C(=O)N[C@@H](C)C(=O)N[C@@H]([C@@H](C)O)C(=O)N1)[C@@H](C)O)C(=O)N1CCC[C@H]1C(=O)N[C@@H](CO)C(=O)N[C@@H](CO)C(=O)N[C@H](C(=O)N[C@@H](CC(N)=O)C(=O)N[C@H](C(=O)NCC(=O)N1CCC[C@H]1C(=O)N[C@@H](Cc1c[nH]cn1)C(=O)N[C@H](C(=O)N[C@@H](Cc1ccc(O)cc1)C(N)=O)[C@@H](C)O)C(C)C)[C@@H](C)O [Example 118] (H-K([γGlu-C20 diacid])CNTATCATQRLAEFLRHSSPNFGAIPSSTNVGPHTY-NH2; disulfide 2-7) | 14.4 | 14.4 | 14.4 | 21.2 | 21.2 | 21.2 | 21.2 | 21.2 | 21.2 | 21.2 | 0.104 | 52.2 | 52.2 | 52.2 | 5.43 |
| CC[C@H](C)[C@H](NC(=O)[C@H](C)NC(=O)CNC(=O)[C@H](Cc1ccccc1)NC(=O)[C@H](CC(N)=O)NC(=O)[C@@H]1CCCN1C(=O)[C@H](CO)NC(=O)[C@H](CO)NC(=O)[C@H](Cc1c[nH]cn1)NC(=O)[C@H](CCCNC(=N)N)NC(=O)[C@H](CC(C)C)NC(=O)[C@H](Cc1ccccc1)NC(=O)[C@H](CC(=O)O)NC(=O)[C@H](C)NC(=O)[C@H](CC(C)C)NC(=O)[C@H](CCCNC(=N)N)NC(=O)[C@H](CCC(N)=O)NC(=O)[C@@H](NC(=O)[C@H](C)NC(=O)[C@@H]1CSSC[C@H](NC(=O)[C@@H](N)CCCCNC(=O)CC[C@H](NC(=O)CC[C@H](NC(=O)CCCCCCCCCCCCCCCCCCC(=O)O)C(=O)O)C(=O)O)C(=O)N[C@@H](CC(N)=O)C(=O)N[C@@H]([C@@H](C)O)C(=O)N[C@@H](C)C(=O)N[C@@H]([C@@H](C)O)C(=O)N1)[C@@H](C)O)C(=O)N1CCC[C@H]1C(=O)N[C@@H](CO)C(=O)N[C@@H](CO)C(=O)N[C@H](C(=O)N[C@@H](CC(N)=O)C(=O)N[C@H](C(=O)NCC(=O)N1CCC[C@H]1C(=O)N[C@@H](CCC(=O)O)C(=O)N[C@H](C(=O)N[C@@H](Cc1ccc(O)cc1)C(N)=O)[C@@H](C)O)C(C)C)[C@@H](C)O [Example 122] (H-K([γGlu-γGlu-C20 diacid])CNTATCATQRLADFLRHSSPNFGAIPSSTNVGPETY-NH2; disulfide 2-7 (inferred); N-terminus assumed) | 5.3 | 5.3 | 5.3 | 49.8 | 49.8 | 49.8 | 49.8 | 49.8 | 49.8 | 49.8 | 0.324 | 98.5 | 98.5 | 98.5 | 31.9 |
